Data set [1] relates to HepG2 cells. Nature of the data set: Cell glucose uptake assay in HepG2 cells. The settings on record: relative glucose uptake at 5 µM in HepG2 cells, 3 h, compared with original glucose concentration of the medium; na = not active at 5 µM. The format is cell-based, human. How it is done:
(§1) The hepatocyte cell line HepG2 cells obtained from the Type Culture Collection of the Chinese Academy of Sciences (Shanghai, China) were maintained in high-glucose DMEM (Gibco) supplemented with 10% fetal bovine serum (FBS) and 1% penicillin-streptomycin in an atmosphere of 5% CO2 at 37 °C.
Into a 96-well plate, 5 × 10^3 HepG2 cells per well were seeded. After 48 h, phenol red-free DMEM (Gibco) with 1% FBS was transferred to deprive the cells overnight, and then the tested compounds dissolved in a glucose-HEPES buffer (glucose concentration was 100 µg/mL) at a concentration of 5 µM were added to the culture system. Three hours later, the culture supernatants were collected and the glucose concentrations were detected using the Glucose (GO) Assay Kit (Sigma-Aldrich Corp.). Compared with the original glucose concentration of the buffer, the relative glucose uptake was calculated.

In the next data set the target is T1, human GSK-3β (Homo sapiens, UniProt P49841).
T1 construct: purchased Invitrogen
T1 sequence (P49841 whole entry): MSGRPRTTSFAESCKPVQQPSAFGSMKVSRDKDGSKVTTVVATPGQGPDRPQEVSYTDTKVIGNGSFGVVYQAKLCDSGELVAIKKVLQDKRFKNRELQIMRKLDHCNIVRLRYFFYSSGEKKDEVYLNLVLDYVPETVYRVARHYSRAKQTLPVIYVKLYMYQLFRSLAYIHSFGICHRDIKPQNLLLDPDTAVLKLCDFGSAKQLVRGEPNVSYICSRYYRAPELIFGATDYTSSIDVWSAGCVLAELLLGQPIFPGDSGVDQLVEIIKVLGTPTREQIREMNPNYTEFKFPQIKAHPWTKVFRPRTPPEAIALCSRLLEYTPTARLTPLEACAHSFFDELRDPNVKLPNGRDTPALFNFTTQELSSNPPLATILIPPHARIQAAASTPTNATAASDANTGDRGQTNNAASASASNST
Nature of the data set: Inhibition of recombinant GSK-3β (Z-lyte assay). It counts as biochemical. The settings on record: for IC50: human GSK-3β, top concentration 30 μM. As for the experimental part: The activity of recombinant GSK-3β (Invitrogen) was measured in a Z-lyte assay of Invitrogen. In this assay, 100 nL of the compound solution in DMSO was transferred to a 384-well assay plate (the compound got threefold serial dilution, and the top concentration of the compound was 30 μM in the final reaction mixture). Then 5 μL of an enzyme (2 nM) and Ser/Thr 9 peptide (4 μM) mixture was added. After the enzyme and peptide pre-incubation with the compound for 30 min at 23 °C, 5 μL of ATP (12 μM) solution was added. The plate was incubated for 60 min at 23 °C. The reaction was stopped with 5 μL of development reagent. Fluorescence signals were detected with Envision (PerkinElmer, America) after 30 min of incubation, and the emission ratio (RFU 460 nm/RFU 535 nm) was used to analyze the data. The relative IC50 was reported using four-parameter logistic fit of IDBS Xlfit software. The IC50 values were calculated using the following equation: %Phosphorylation = 1 - (Emission Ratio × F100%) - C100%/(C0% - C100%) + [Emission Ratio × (F100% - F0%)] where
Emission ratio = Coumarin/Fluorescein ratio of sample wells
C100% = Average coumarin emission signal of the 100% phos. control
C0% = Average coumarin emission signal of the 0% phos. control
F100% = Average fluorescein emission signal of the 100% phos. control
F0% = Average fluorescein emission signal of the 0% phos. control %Inhibition = {1 - %Phos Sample/%Phos 0%Inhibition Ctl}*100

The nature of data set [2]: MTT assay for cell viability (cytotoxicity). The settings on record: human; HepG2 cells, 48 h incubation, MTT. It counts as cell-based, human. How it is done:
as §1
(§2) Into a 96-well plate, 1 × 10^3 HepG2 cells per well were seeded. After 24 h, stock solutions of test compounds in DMSO were diluted in DMEM to ≤0.1% final DMSO concentration. Cells were treated with various concentrations (2.5–25 µM) of tested compounds for 48 h, and the MTT solution (0.5 mg/mL) was added. After 4 h of incubation at 37 °C for MTT-formazan formation, the supernatant was discarded and 100 µL of DMSO was applied into each well to dissolve formazan crystals. Absorbance at 490 nm was determined spectrophotometrically by using a microplate reader (Epoch, BioTek Instruments, Inc., Winooski, VT, USA).
In general terms: Tetrazolium assays rely on reduction of a dye to a coloured formazan, in cell work by metabolically active cells.

Data set [3] relates to HepG2 cells. In words: MTT assay for cell viability (cytotoxicity). The format is cell-based, human. As for the experimental part: as §1, §2

By melting point is commonly meant the temperature, or range, at which the solid turns liquid. As usually defined, the IC50 is the concentration that inhibits the measured activity by half. The CC50 is the concentration at which the toxic effect on the cells reaches its halfway point. A high value points to lower toxicity to the cells.

For the molecule `Nc1ncc(-c2ccc(NC(=O)c3ccccc3Br)cc2)c(-c2c[nH]c3ccc(Br)cc23)n1` [A13, N-(4-(2-amino-4-(5-bromo-1H-indol-3-yl)pyrimidin-5-yl)phenyl)-2-bromobenzamide], the melting point fell in the range of 147.4 to 148.3 °C. Moreover, in the data set with HepG2 cells [1], the “Cell Glucose Uptake (%)” value worked out at 27%. Also, at human GSK-3β, the “inhibitory activity against GSK-3β at 30 µM (in words)” value was “no apparent inhibitory activity” and the IC50 was over 30 µM. The cytotoxic concentration (CC50) at 48 h in data set [2] was over 25 µM.

`Nc1ncc(-c2ccc(NC(=O)c3cc(Cl)cc(Cl)c3)cc2)c(-c2c[nH]c3ccc(Br)cc23)n1` [A26, N-(4-(2-amino-4-(5-bromo-1H-indol-3-yl)pyrimidin-5-yl)phenyl)-3,5-dichlorobenzamide] registered a melting point of 177.7 to 178.5 °C. For the same molecule, the “Cell Glucose Uptake (%)” value with HepG2 cells [1] was 22%. On human GSK-3β, the “inhibitory activity against GSK-3β at 30 µM (in words)” value is given as “no apparent inhibitory activity” and the IC50 was over 30 µM. In data set [2], this molecule had a 50% cytotoxic concentration (CC50) at 48 h of 14.3 µM.

`Fc1cccc(F)c1Nc1nccc(-c2c[nH]c3ccc(Br)cc23)n1` [B29, 4-(5-Bromo-1H-indol-3-yl)-N-(2,6-difluorophenyl) pyrimidin-2-amine] showed a melting point of 263.3 to 264.2 °C. The “Cell Glucose Uptake (%)” value with HepG2 cells [1] was found to be 29%. In addition, the IC50 on human GSK-3β came out at 5.85 µM. Also, the “toxicity against HepG2 cells (in words)” value with HepG2 cells [3] is listed as “no significant toxicity”. This molecule also gave a cytotoxic concentration (CC50) at 48 h in data set [2] of 22.4 µM.

Molecule `Cc1cccc(C)c1Nc1nccc(-c2c[nH]c3ccc(Br)cc23)n1` [B30, 4-(5-Bromo-1H-indol-3-yl)-N-(2,6-dimethylphenyl) pyrimidin-2-amine] had a melting point of 228.5 to 229.4 °C. In addition, in the data set on HepG2 cells [1], the “Cell Glucose Uptake (%)” value is 38%. On human GSK-3β, the IC50 is 24.4 µM. Besides, the “toxicity against HepG2 cells (in words)” value in the data set with HepG2 cells [3] is given as “no significant toxicity”. This molecule returned a CC50 at 48 h in data set [2] of 18.1 µM.

Values taken from publication PMC7998309, “Structural-Based Optimizations of the Marine-Originated Meridianin C as Glucose Uptake Agents by Inhibiting GSK-3β” (Marine Drugs, 2021).
